From patent US10457703B2, “Bile acid derivatives as FXR/TGR5 agonists and methods of use thereof” (ENANTA PHARMACEUTICALS, INC., priority 2015, dated 2019)

Molecular target: human FXR (NR1H4) (Homo sapiens (Human), UniProt Q96RI1)
Assay: Human FXR (NR1H4) Assay (Gal4 promoter driven luciferase reporter, Indigo Bioscience kit);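 as to Efficacy (%): 100% equals the efficacy of CDCA; efficacy normalized to CDCA set as 100%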
Assay type: cell-based
Conditions: for EC50: Human FXR (NR1H4) Assay, potency ranges; for Emax: read-out: Efficacy (%)
From the text: ASSAYS Human FXR (NR1H4) Assay
Determination of a ligand mediated Gal4 promoter driven transactivation to quantify ligand binding mediated activation of FXR. FXR Reporter Assay kit purchased from Indigo Bioscience (Catalogue number: IB00601) to determine the potency and efficacy of compound developed by Enanta that can induce FXR activation. The principle application of this reporter assay system is to quantify functional activity of human FXR. The assay utilizes non-human mammalian cells, CHO (Chinese hamster ovary) cells engineered to express human NR1H4 protein (referred to as FXR). Reporter cells also incorporate the cDNA encoding beetle luciferase which catalyzes the substrates and yields photon emission. Luminescence intensity of the reaction is quantified using a plate-reading luminometer, Envision. Reporter Cells include the luciferase reporter gene functionally linked to an FXR responsive promoter. Thus, quantifying changes in luciferase expression in the treated reporter cells provides a sensitive surrogate measure of the changes in FXR activity. […] The assay is according to the manufacturer's instructions. In brief, the assay was performed in white, 96 well plates using final volume of 100 uL containing cells with different doses of compounds. Retrieve Reporter Cells from −80° C. storage. Perform a rapid thaw of the frozen cells by transferring a 10 ml volume of 37° C. cell recovery medium into the tube of frozen cells. Recap the tube of Reporter Cells and immediately place it in a 37° C. water bath for 5-10 minutes. Retrieve the tube of Reporter Cell Suspension from the water bath. Sanitize the outside surface of the tube with a 70% alcohol swab, and then transfer it into the cell culture hood. Dispense 90 μl of cell suspension into each well of the 96-well Assay Plate. Transfer the plate into 37° C. incubator, allowing the cells adherent to the bottom of the well. Dilute compounds in Dilution Plate (DP), and administrate to cells at Assay Plate (AP). DMSO content of the samples was kept at 0.2%. Cells were incubated for additional 22 hours before luciferase activities were measured. Thirty minutes before intending to quantify FXR activity, remove Detection Substrate and Detection Buffer from the refrigerator and place them in a low-light area so that they may equilibrate to room temperature. Remove the plate's lid and discard all media contents by ejecting it into an appropriate waste container. Gently tap the inverted plate onto a clean absorbent paper towel to remove residual droplets. Cells will remain tightly adhered to well bottoms. Add 100 μl of luciferase detection reagent to each well of the assay plate. Allow the assay plate to rest at room temperature for at least 5 minutes following the addition of LDR. Set the instrument (Envision) to perform a single 5 second “plate shake” prior to reading the first assay well. Read time may be 0.5 second (500 mSec) per well.

Chain of human FXR (NR1H4) (Q96RI1 whole entry, the tested form may be a part): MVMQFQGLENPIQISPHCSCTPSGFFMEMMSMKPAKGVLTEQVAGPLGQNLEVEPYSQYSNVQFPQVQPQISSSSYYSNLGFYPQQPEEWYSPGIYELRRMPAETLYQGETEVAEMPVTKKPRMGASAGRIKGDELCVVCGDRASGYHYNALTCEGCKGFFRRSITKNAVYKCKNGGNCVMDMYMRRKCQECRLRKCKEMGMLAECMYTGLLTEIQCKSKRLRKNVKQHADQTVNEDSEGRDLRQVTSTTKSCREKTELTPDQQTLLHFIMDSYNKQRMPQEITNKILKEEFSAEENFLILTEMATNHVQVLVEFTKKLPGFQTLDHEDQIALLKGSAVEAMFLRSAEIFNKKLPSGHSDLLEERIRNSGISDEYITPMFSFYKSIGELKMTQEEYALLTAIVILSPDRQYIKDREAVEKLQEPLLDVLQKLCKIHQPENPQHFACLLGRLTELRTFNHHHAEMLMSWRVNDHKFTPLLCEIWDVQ

Row | Compound | EC50 | Emax
1 | CC[C@H]1[C@@H](O)[C@@H]2[C@H](CC[C@]3(C)[C@@H]([C@H](C)CCOC(=O)NS(=O)(=O)C4(C)CC4)CC[C@@H]23)[C@@]2(C)CC[C@@H](O)C[C@@H]12 [Example 49] | < 100 nM | 269%
2 | CC[C@H]1[C@@H](O)[C@@H]2[C@H](CC[C@]3(C)[C@@H]([C@H](C)CCOC(=O)NS(=O)(=O)N(C)C)CC[C@@H]23)[C@@]2(C)CC[C@@H](O)C[C@@H]12 [Example 50] | < 100 nM | 291%
3 | CC[C@H]1[C@@H](O)[C@@H]2[C@H](CC[C@]3(C)[C@@H]([C@H](C)CCOC(=O)NS(=O)(=O)N4CCCC4)CC[C@@H]23)[C@@]2(C)CC[C@@H](O)C[C@@H]12 [Example 51] | < 100 nM | 218%
4 | CC[C@H]1[C@@H](O)[C@@H]2[C@H](CC[C@]3(C)[C@@H]([C@H](C)CCOC(=O)NS(=O)(=O)c4ccc(OC)cc4)CC[C@@H]23)[C@@]2(C)CC[C@@H](O)C[C@@H]12 [Example 52] | < 100 nM | 226%
5 | CC[C@H]1[C@@H](O)[C@@H]2[C@H](CC[C@]3(C)[C@@H]([C@H](C)CCOC(=O)NS(=O)(=O)c4ccc(OC(F)(F)F)cc4)CC[C@@H]23)[C@@]2(C)CC[C@@H](O)C[C@@H]12 [Example 53] | < 100 nM | 411%
6 | CC[C@H]1[C@@H](O)[C@@H]2[C@H](CC[C@]3(C)[C@@H]([C@H](C)CCOC(=O)NS(=O)(=O)c4cccc(C(C)(C)C)c4)CC[C@@H]23)[C@@]2(C)CC[C@@H](O)C[C@@H]12 [Example 54] | 100 to 1000 nM | 290%
7 | CC[C@H]1[C@@H](O)[C@@H]2[C@H](CC[C@]3(C)[C@@H]([C@H](C)CCOC(=O)NS(=O)(=O)c4ccc(C(C)(C)C(=O)OC)cc4)CC[C@@H]23)[C@@]2(C)CC[C@@H](O)C[C@@H]12 [Example 55] | < 100 nM | 258%
8 | CC[C@H]1[C@@H](O)[C@@H]2[C@H](CC[C@]3(C)[C@@H]([C@H](C)CCOC(=O)NS(=O)(=O)Cc4ccccc4)CC[C@@H]23)[C@@]2(C)CC[C@@H](O)C[C@@H]12 [Example 56] | < 100 nM | 326%
9 | CCCCS(=O)(=O)NC(=O)OCC[C@@H](C)[C@H]1CC[C@H]2[C@@H]3[C@H](O)[C@H](CC)[C@@H]4C[C@H](O)CC[C@]4(C)[C@H]3CC[C@]12C [Example 57] | < 100 nM | 392%
10 | CC[C@H]1[C@@H](O)[C@@H]2[C@H](CC[C@]3(C)[C@@H]([C@H](C)CCOC(=O)NS(=O)(=O)C[C@]45CCC(CC4=O)C5(C)C)CC[C@@H]23)[C@@]2(C)CC[C@@H](O)C[C@@H]12 [Example 58] | < 100 nM | 366%
11 | CC[C@H]1[C@@H](O)[C@@H]2[C@H](CC[C@]3(C)[C@@H]([C@H](C)CCOC(=O)NS(=O)(=O)N4CCOCC4)CC[C@@H]23)[C@@]2(C)CC[C@@H](O)C[C@@H]12 [Example 59] | < 100 nM | 428%
12 | CC[C@H]1[C@@H](O)[C@@H]2[C@H](CC[C@]3(C)[C@@H]([C@H](C)CCOC(=O)NS(=O)(=O)c4ccccc4)CC[C@@H]23)[C@@]2(C)CC[C@@H](O)C[C@@H]12 [Example 60] | < 100 nM | 309%
13 | CC[C@H]1[C@@H](O)[C@@H]2[C@H](CC[C@]3(C)[C@@H]([C@H](C)CCOC(=O)NS(=O)(=O)c4ccc(Cl)cc4)CC[C@@H]23)[C@@]2(C)CC[C@@H](O)C[C@@H]12 [Example 61] | < 100 nM | 270%
14 | CC[C@H]1[C@@H](O)[C@@H]2[C@H](CC[C@]3(C)[C@@H]([C@H](C)CCOC(=O)NS(=O)(=O)c4ccc(C(C)(C)C)s4)CC[C@@H]23)[C@@]2(C)CC[C@@H](O)C[C@@H]12 [Example 62] | < 100 nM | 299%
15 | CC[C@H]1[C@@H](O)[C@@H]2[C@H](CC[C@]3(C)[C@@H]([C@H](C)CCOC(=O)NS(=O)(=O)c4cccc(OC(F)(F)F)c4)CC[C@@H]23)[C@@]2(C)CC[C@@H](O)C[C@@H]12 [Example 63] | < 100 nM | 396%
16 | CC[C@H]1[C@@H](O)[C@@H]2[C@H](CC[C@]3(C)[C@@H]([C@H](C)CCOC(=O)NS(=O)(=O)c4ccc(-c5ccccc5)s4)CC[C@@H]23)[C@@]2(C)CC[C@@H](O)C[C@@H]12 [Example 64] | 100 to 1000 nM | 281%
17 | CC[C@H]1[C@@H](O)[C@@H]2[C@H](CC[C@]3(C)[C@@H]([C@H](C)CCOC(=O)NS(=O)(=O)c4cccc(Cl)c4)CC[C@@H]23)[C@@]2(C)CC[C@@H](O)C[C@@H]12 [Example 65] | < 100 nM | 322%
18 | CC[C@H]1[C@@H](O)[C@@H]2[C@H](CC[C@]3(C)[C@@H]([C@H](C)CCOC(=O)NS(=O)(=O)c4cccc(F)c4)CC[C@@H]23)[C@@]2(C)CC[C@@H](O)C[C@@H]12 [Example 66] | 100 to 1000 nM | 320%
19 | CC[C@H]1[C@@H](O)[C@@H]2[C@H](CC[C@]3(C)[C@@H]([C@H](C)CCOC(=O)NS(=O)(=O)c4ccc5c(c4)CCC5)CC[C@@H]23)[C@@]2(C)CC[C@@H](O)C[C@@H]12 [Example 67] | < 100 nM | 290%
20 | CC[C@H]1[C@@H](O)[C@@H]2[C@H](CC[C@]3(C)[C@@H]([C@H](C)CCOC(=O)NS(=O)(=O)c4ccc(-c5ccccc5)cc4)CC[C@@H]23)[C@@]2(C)CC[C@@H](O)C[C@@H]12 [Example 68] | 100 to 1000 nM | 286%
21 | CC[C@H]1[C@@H](O)[C@@H]2[C@H](CC[C@]3(C)[C@@H]([C@H](C)CCOC(=O)NS(=O)(=O)N4CCCCC4)CC[C@@H]23)[C@@]2(C)CC[C@@H](O)C[C@@H]12 [Example 69] | < 100 nM | 368%
22 | CC[C@H]1[C@@H](O)[C@@H]2[C@H](CC[C@]3(C)[C@@H]([C@H](C)CCOC(=O)NS(=O)(=O)c4ccc(C(C)(C)CO)cc4)CC[C@@H]23)[C@@]2(C)CC[C@@H](O)C[C@@H]12 [Example 70] | < 100 nM | 333%
23 | CC[C@H]1[C@@H](O)[C@@H]2[C@H](CC[C@]3(C)[C@@H]([C@H](C)CCOC(=O)NS(=O)(=O)c4ccccc4F)CC[C@@H]23)[C@@]2(C)CC[C@@H](O)C[C@@H]12 [Example 71] | 100 to 1000 nM | 317%
24 | CC[C@H]1[C@@H](O)[C@@H]2[C@H](CC[C@]3(C)[C@@H]([C@H](C)CCOC(=O)NS(=O)(=O)c4ccccn4)CC[C@@H]23)[C@@]2(C)CC[C@@H](O)C[C@@H]12 [Example 72] | 1000 to 10000 nM | 305%
25 | CC[C@H]1[C@@H](O)[C@@H]2[C@H](CC[C@]3(C)[C@@H]([C@H](C)CCOC(=O)NS(=O)(=O)c4ccncc4)CC[C@@H]23)[C@@]2(C)CC[C@@H](O)C[C@@H]12 [Example 73] | 1000 to 10000 nM | 352%
26 | CC[C@H]1[C@@H](O)[C@@H]2[C@H](CC[C@]3(C)[C@@H]([C@H](C)CCOC(=O)N4CCCS4(=O)=O)CC[C@@H]23)[C@@]2(C)CC[C@@H](O)C[C@@H]12 [Example 74] | 100 to 1000 nM | 358%
27 | CC[C@H]1[C@@H](O)[C@@H]2[C@H](CC[C@]3(C)[C@@H]([C@H](C)CCOC(=O)NS(=O)(=O)C(C)C)CC[C@@H]23)[C@@]2(C)CC[C@@H](O)C[C@@H]12 [Example 75] | < 100 nM | 386%
28 | CC[C@H]1[C@@H](O)[C@@H]2[C@H](CC[C@]3(C)[C@@H]([C@H](C)CCOC(=O)NS(=O)(=O)c4ccccc4Cl)CC[C@@H]23)[C@@]2(C)CC[C@@H](O)C[C@@H]12 [Example 76] | 100 to 1000 nM | 234%
29 | CC[C@H]1[C@@H](O)[C@@H]2[C@H](CC[C@]3(C)[C@@H]([C@H](C)CCOC(=O)NS(=O)(=O)c4ccccc4OC(F)(F)F)CC[C@@H]23)[C@@]2(C)CC[C@@H](O)C[C@@H]12 [Example 77] | 100 to 1000 nM | 383%
30 | CC[C@H]1[C@@H](O)[C@@H]2[C@H](CC[C@]3(C)[C@@H]([C@H](C)CCOC(=O)NS(=O)(=O)c4cccc(C(F)(F)F)c4)CC[C@@H]23)[C@@]2(C)CC[C@@H](O)C[C@@H]12 [Example 78] | 100 to 1000 nM | 365%
